Source: paper PMC3163471 (MedChemComm, 2011)

Test system: breast cancer cell lines
Experiment: Antiproliferative activity, cell line not given
Format: cell-based, human
Conditions: text on structure-activity relationship, Tables 1 and 2

Row | Substance | Antiproliferative activity in words, compared with compound 5 or the parent
1 | H-Arg-[3-amino-3(biphenyl)-propionic acid]-Phe-OH [Compound 10] | retained the activity and specificity
2 | H-Lys-[3-amino-3(biphenyl)-propionic acid]-Phe-OH [Compound 11] | loss of activity
3 | H-Arg-[3-amino-3(1-napthyl)-propionic acid]-Asp-OH [Compound 7] | loss of activity
4 | H-Arg-Pro-[3-amino-3(1-napthyl)-propionic acid]-Tyr-OH [Compound 13] | activity was lost
5 | H-Arg-[3-amino-3(1-napthyl)-propionic acid]-Tyr-OH [Compound 6] | loss of activity
